Data published in patent US20260258081A1, “PEPTIDE HAVING HAIR GROWTH PROMOTING ACTIVITY, AND USE THEREOF” (CAREGEN CO., LTD., priority 2019, published 2026).

How the values were obtained:
Format in all cases: cell-based
[1] = system: human dermal papilla cells; assay: Western blotting of apoptosis-related proteins Bax, Cleaved PARP-1, Cleaved Caspase-3, Bcl2; details: peptide 0.5 uM, 5 uM or 50 uM, 1 day, serum-free medium; western blot; FIG. 4
Method: The inhibitory effect of the peptide consisting of the amino acid sequence of SEQ ID NO: 1 on the control of expression of apoptosis-related proteins of hair follicle cells was to be confirmed. In detail, human dermal papilla cells were seeded in a 96-well plate at a density of 4×10^5 cells/well, and cultured for 16 hours. The culture medium was replaced with a serum-free medium, and the peptide was added thereto at a concentration of 0.5 uM, 5 uM, or 50 uM, and the cells were cultured for 1 day. Here, as a positive control group, 5 uM of Minoxidil was treated. Cell lysates were prepared by harvesting the cell, and then, western blotting was performed with respect to Bax, Cleaved PARP-1, Cleaved Caspase-3, or Bcl2 by using Bax antibodies, Cleaved PARP-1 antibodies, Cleaved Caspase-3 antibodies, or Bcl2 antibodies (Santacruz biotechnology, USA), respectively.

[2] = system: human dermal papilla cells; assay: PCR expression of Lef-1, Cyclin D1 and c-Myc (activity of dermal papilla cells); details: peptide 0.5 uM, 5 uM or 50 uM, 1 day, serum-free medium, FIG. 2
Method: (§1) The promoting effect of the peptide consisting of the amino acid sequence of SEQ ID NO: 1 on the activity of hair follicle cells was to be confirmed. In detail, human dermal papilla cells were seeded in a 96-well plate at a density of 4×10^5 cells/well, and cultured for 16 hours. The culture medium was replaced with a serum-free medium, and the peptide was added thereto at a concentration of 0.5 uM, 5 uM, or 50 uM, and the cells were cultured for 1 day. Here, as a positive control group, 5 uM of Minoxidil was treated. After the cells were harvested, RNA was extracted therefrom and used for synthesis of cDNA by using a cDNA synthesis kit and PCR pre-mix (Intron, Korea).

[3] = system: human hair follicle germinal matrix cells; assay: PCR expression of MSX2 (activity of germinal matrix cells); details: peptide 0.5 uM, 5 uM or 50 uM, 1 day, serum-free medium, FIG. 6
Method: as §1, with “of germinal matrix” for “of hair follicle”, “human hair follicle” for “human”, “of EGF” for “of Minoxidil”, “of cNDA” for “of cDNA”, “PCR pre-mix.” for “PCR pre-mix (Intron, Korea).”

[4] = system: human hair follicle outer root sheath cells; assay: PCR expression of HA3-II, Keratin 5, Keratin 14 and Keratin 19 (activity of outer root sheath cells); details: peptide 0.5 uM, 5 uM or 50 uM, 1 day, serum-free medium, FIG. 7
Method: as §1, with “follicle outer root sheath” for “follicle”, “human hair follicle outer root sheath” for “human dermal papilla”, “of EGF” for “of Minoxidil”, “of cNDA” for “of cDNA”, “PCR pre-mix. Then, PCR was performed by using the primer of GAPDH shown in Table 2 and primers of HA3-II, Keratin 5, Keratin 14, and Keratin […] shown in Table 6.” for “PCR pre-mix (Intron, Korea).”

[5] = system: human hair follicle dermal papilla cells; assay: β-catenin movement from cytoplasm to nucleus, western blotting of nuclear extract; details: peptide 0.5 uM, 5 uM or 50 uM, 1 day, serum-free medium; western blot; FIG. 1
Method: The promoting effect of the peptide consisting of the amino acid sequence of SEQ ID NO: 1 on the proliferation of hair follicle cells was to be confirmed. In detail, human hair follicle dermal papilla cells were seeded in a 96-well plate at a density of 4×10^5 cells/well, and cultured for 16 hours. The culture medium was replaced with a serum-free medium, and the peptide was added thereto at a concentration of 0.5 uM, 5 uM, or 50 uM, and the cells were cultured for 1 day. Here, as a positive control group, 5 uM of Minoxidil which is used as a hair loss treatment was treated. The cells were harvested and nuclei thereof were isolated by using a nuclear protein extraction kit (Merck, USA). Then, western blotting was performed with respect to β-catenin which is a factor related to proliferation of the dermal papilla cells by using β-catenin antibodies (Santacruz biotechnology, USA).

[6] = system: human dermal papilla cells; assay: PCR expression of growth factors VEGF, bFGF, KGF and HGF; details: peptide 0.5 uM, 5 uM or 50 uM, 1 day, serum-free medium, FIG. 3
Method: as §1, with “activity of a growth factor” for “activity”, “of cNDA” for “of cDNA”, “PCR pre-mix.” for “PCR pre-mix (Intron, Korea).”

[7] = system: human dermal papilla cells; assay: PCR expression of DKK-1 under DHT stimulation; details: DHT 10 ug/ml as stimulator, peptide 0.5 uM, 5 uM or 50 uM, 1 day, serum-free medium, FIG. 5
Method: The inhibitory effect of the peptide consisting of the amino acid sequence of SEQ ID NO: 1 on the expression of DKK-1, which is a hair loss-related factor, in hair follicle cells was to be confirmed. In detail, human dermal papilla cells were seeded in a 96-well plate at a density of 4×10^5 cells/well, and cultured for 16 hours. After the culture medium was replaced with a serum-free medium, dihydrotestosterone (DHT) as a stimulator was added thereto at a concentration of 10 ug/ml while peptide was added thereto at a concentration of 0.5 uM, 5 uM, or 50 uM. Then, the cells were cultured for 1 day. As a positive control, 50 uM of Finasteride which is a drug inhibiting male hormones was treated. Here, DHT is known as a hair loss hormone that increases the expression of DKK-1, which is a hair loss-inducible factor, by activating an androgen receptor. After the cells were harvested, RNA was extracted therefrom and used for synthesis of cNDA by using a cDNA synthesis kit and PCR pre-mix.

## TKVFPQD [SEQ ID NO: 1]
[1]
  expression of Bax: decreased
  expression of Bcl2 (anti-apoptosis-related protein): increased
  expression of Cleaved Caspase-3: decreased
  expression of Cleaved PARP-1: decreased
[2]
  expression of Cyclin D1: increased
  expression of Lef-1: increased
  expression of c-Myc: increased
[3]
  expression of MSX2: increase
[4]
  expression of HA3-II: increase
  expression of Keratin 5: increase
  expression of Keratin 14: increase
  expression of Keratin 19: increase
[5]
  movement of β-catenin from the cytoplasm to the nucleus: increased
[6]
  expression of HGF: increased
  expression of KGF: increased
  expression of VEGF: increased
  expression of bFGF: increased
[7]
  expression pathway of DKK-1: inhibit
